Measurements published in ChEMBL document CHEMBL2029332, “Identification of binding specificity-determining features in protein families” (J Med Chem, 2012).

Key:
[1] = target: Cyclin-dependent kinase 2/cyclin E1 (Homo sapiens, UniProt P24941); assay: Inhibition of human recombinant CDK2/CycE using HHASPRK as substrate by ESI-MS analysis; type: protein-complex assay
[2] = target: T1, Tyrosine-protein kinase ZAP-70 (Homo sapiens, UniProt P43403); assay: Inhibition of human recombinant ZAP70 using EEEEYEEEE as substrate by ESI-MS analysis
T1 sequence (P43403 whole entry): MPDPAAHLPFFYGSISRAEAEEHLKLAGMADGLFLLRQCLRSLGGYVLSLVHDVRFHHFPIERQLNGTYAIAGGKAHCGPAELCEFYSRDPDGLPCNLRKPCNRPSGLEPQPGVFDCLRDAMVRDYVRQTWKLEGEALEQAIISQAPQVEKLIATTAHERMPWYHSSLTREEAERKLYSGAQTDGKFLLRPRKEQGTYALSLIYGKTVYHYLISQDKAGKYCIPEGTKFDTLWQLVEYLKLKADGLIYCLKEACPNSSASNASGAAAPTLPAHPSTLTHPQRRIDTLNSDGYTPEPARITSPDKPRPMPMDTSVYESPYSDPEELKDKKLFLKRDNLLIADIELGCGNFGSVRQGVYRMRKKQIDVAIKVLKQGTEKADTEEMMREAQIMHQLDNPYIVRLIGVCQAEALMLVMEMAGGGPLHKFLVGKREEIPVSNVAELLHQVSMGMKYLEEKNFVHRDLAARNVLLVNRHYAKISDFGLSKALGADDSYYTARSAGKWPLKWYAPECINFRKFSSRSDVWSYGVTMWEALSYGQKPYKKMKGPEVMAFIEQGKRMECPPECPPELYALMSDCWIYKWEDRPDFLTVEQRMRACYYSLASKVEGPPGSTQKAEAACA

[3] = target: Protein-tyrosine kinase 2-beta (Homo sapiens, UniProt Q14289); assay: Inhibition of human recombinant PYK2 by ESI-MS analysis
Sequence of Protein-tyrosine kinase 2-beta (Q14289 whole entry): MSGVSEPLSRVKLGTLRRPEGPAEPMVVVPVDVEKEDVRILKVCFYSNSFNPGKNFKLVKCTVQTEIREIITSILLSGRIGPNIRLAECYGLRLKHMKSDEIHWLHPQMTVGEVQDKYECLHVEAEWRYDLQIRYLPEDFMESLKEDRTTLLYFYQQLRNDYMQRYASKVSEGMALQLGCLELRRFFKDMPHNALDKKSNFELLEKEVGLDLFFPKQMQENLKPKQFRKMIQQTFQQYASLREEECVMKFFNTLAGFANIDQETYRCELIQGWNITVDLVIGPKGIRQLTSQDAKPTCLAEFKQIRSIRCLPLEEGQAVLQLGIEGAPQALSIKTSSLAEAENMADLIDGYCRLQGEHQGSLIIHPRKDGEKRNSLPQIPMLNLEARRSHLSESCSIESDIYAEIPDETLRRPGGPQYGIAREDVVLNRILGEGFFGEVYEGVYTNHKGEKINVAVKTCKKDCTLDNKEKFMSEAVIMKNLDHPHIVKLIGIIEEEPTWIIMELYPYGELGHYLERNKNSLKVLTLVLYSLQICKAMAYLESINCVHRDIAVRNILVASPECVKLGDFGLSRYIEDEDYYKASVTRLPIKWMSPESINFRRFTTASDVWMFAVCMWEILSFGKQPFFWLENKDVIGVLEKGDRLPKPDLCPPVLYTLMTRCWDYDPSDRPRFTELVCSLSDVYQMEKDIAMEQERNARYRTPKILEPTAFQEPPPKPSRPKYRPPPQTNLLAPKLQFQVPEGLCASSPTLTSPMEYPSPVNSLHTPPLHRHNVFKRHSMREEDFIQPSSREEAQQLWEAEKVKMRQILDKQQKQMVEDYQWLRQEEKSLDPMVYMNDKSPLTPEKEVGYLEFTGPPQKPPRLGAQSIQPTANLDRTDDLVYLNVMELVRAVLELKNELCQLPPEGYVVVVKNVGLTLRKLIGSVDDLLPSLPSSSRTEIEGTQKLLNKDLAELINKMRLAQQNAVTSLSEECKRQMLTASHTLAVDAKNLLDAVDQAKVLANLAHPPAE

| Ki [1] | Ki [2] | Ki [3] | SMILES |
| --- | --- | --- | --- |
| 490 nM | > 10 µM | 0.0105 µM | Cc1[nH]c(/C=C2\C(=O)Nc3ccc(S(=O)(=O)N(C)c4cccc(Cl)c4)cc32)c(C)c1C(=O)N1CCN(C)CC1 |
| – | > 10 µM | > 10 µM | NS(=O)(=O)c1ccc(N/N=C2\C(=O)Nc3ccc(Br)cc32)cc1 |
| 0.525 nM | 2.63 µM | 0.933 µM | CCCCc1c(-c2ccc(OC)cc2)[nH]c2nccnc12 [ALOISINE] |
| 1100 nM | > 10 µM | > 10 µM | CN(C)c1ncnc2nc[nH]c12 [DIMETHYLADENINE] |
| 372 nM | 1.55 µM | > 10 µM | O=C1C(C2=C3C(=Nc4ccccc43)/C(=C\c3ccc(O)cc3)C2=O)=C2C(=Nc3ccccc32)/C1=C\c1ccc(O)cc1 [SCYTONEMIN] |

| SMILES | Ki [1] | Ki [2] | Ki [3] |
| --- | --- | --- | --- |
| NS(=O)(=O)c1ccc(Nc2nc(OCC3CCCCC3)c3nc[nH]c3n2)cc1 | – | > 10 µM | > 10 µM |
| N#CC(C#N)=Cc1ccc(O)c(O)c1 [TYRPHOSTIN 23] | 617 nM | – | – |
